Data on one compound can be found in patent US12636313B2, “Nutraceutical or pharmaceutical composition comprising iron pyrophosphate for treating and/or preventing iron deficiency conditions or diseases” (NEILOS S.R.L., priority 2019, dated 2026).

For data set [1], the system named is subjects with advanced cancer and plasma iron levels below 60 μg/dL. The note with it: 30 mg/day, 30-day treatment, 42 subjects with advanced cancer; cited from earlier work.
The conditions of data set [2]: after 120 minutes in sham gastric environment, 0.1 M HCl, 37° C., 75 rpm, six replicates. The procedure:
1 g of sample was weighed and introduced into the container of the dissolving apparatus containing 900 mL of 0.1 M HCl. The dissolution was performed for 2 h at 37° C. and 75 rpm. After dissolution, 1 mL of sample was diluted to 50 mL with 0.1 M HCl. The preparation was performed in six replicates for each sample.

`O=P([O-])([O-])OP(=O)([O-])[O-].O=P([O-])([O-])OP(=O)([O-])[O-].O=P([O-])([O-])OP(=O)([O-])[O-].[Fe+3].[Fe+3].[Fe+3].[Fe+3]` [iron pyrophosphate as such, iron pyrophosphate]: in data set [1], the ferritinaemia level entry is “enhanced”, the haemoglobinaemia level entry is “enhanced”, the side effects result is listed as “without appearance of side effects” and the sideraemia level entry is reported as “enhanced”. In addition, the “amount of iron released” value in data set [2] is 7.5 g per 100 g of formulation.
